Experimental data reported in patent publication US20120142685A1, “ORGANIC COMPOUNDS” (priority 2007, published 2012).
Like-named read-outs stand apart in the source and are kept apart here.

Columns and labels:
[1] = target: T1, protein kinase D2 (PKD2) (Homo sapiens, UniProt Q9BZL6); assay: PKD2 TR-FRET (LANCE) kinase assay; format: biochemical
T1 construct: This assay is performed with full length wild-type enzyme purchase from Invitrogen; purchased Invitrogen
T1 sequence (Q9BZL6 1-878): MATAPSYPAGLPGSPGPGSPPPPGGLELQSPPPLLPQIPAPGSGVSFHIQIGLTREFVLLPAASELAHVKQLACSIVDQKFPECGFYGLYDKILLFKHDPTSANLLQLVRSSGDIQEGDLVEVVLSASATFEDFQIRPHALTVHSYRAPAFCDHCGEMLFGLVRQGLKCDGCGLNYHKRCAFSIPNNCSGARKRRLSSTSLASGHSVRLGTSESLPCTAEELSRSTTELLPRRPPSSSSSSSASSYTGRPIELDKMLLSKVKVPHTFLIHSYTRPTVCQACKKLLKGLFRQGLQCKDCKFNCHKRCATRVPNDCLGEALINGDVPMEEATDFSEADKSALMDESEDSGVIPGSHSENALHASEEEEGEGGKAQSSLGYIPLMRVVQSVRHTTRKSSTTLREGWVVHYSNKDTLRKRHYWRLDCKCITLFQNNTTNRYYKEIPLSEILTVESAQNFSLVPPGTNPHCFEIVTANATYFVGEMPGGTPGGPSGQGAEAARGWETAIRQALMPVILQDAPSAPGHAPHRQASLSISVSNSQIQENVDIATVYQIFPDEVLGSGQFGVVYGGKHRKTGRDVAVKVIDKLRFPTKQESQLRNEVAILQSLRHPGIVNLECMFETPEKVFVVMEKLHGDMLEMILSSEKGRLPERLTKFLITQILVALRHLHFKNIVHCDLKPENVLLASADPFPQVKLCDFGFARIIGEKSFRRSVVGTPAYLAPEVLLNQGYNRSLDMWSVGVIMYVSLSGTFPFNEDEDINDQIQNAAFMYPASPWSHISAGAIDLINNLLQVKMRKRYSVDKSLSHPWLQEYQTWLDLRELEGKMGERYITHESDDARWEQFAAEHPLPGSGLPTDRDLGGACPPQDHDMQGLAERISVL
Excerpt: (§1) The assay to measure protein kinase D2 (PKD2) activity is a time-resolved fluorescence resonance transfer (TR-FRET) assay using PerkinElmer's LANCE™ technology. In this case, a biotinylated syntide-2 peptide is used as the substrate in this reaction. Phosphorylation of the syntide-2 substrate is detected by a specific antibody that recognizes the phosphorylated peptide. A second fluorophore, APC, is conjugated to streptavidin that binds the biotinylated syntide-2 peptide. […] Therefore, when the europium labeled secondary antibody binds on the phosphorylated peptide, it is brought into close contact with the APC and excites this fluorophore.
(§2) This assay is performed with full length wild-type enzyme purchase from Invitrogen. The reaction buffer consists of 35 mM Tris-HCl pH7.5, 5 mM MgCl2, 0.02% Tween-20, 20 μM ATP, 1 mM DTT and 0.2 μg/mL PKD2 enzyme. The enzyme reaction is initiated by the addition of 2 μM syntide-2 peptide substrate and the reaction carried out for 50 minutes at room temperature. The reaction is stopped by a stop/detection buffer consisting of 50 mM EDTA, 0.18 mg/mL rabbit polyclonal anti-phospho syntide-2 antibody, 0.5 nM europium labeled anti-rabbit IgG and 10 nM streptavidin conjugated APC. After a one hour incubation with the stop/detection buffer, the reaction is read on an Envision 2100 Reader using a LANCE™ Eu/APC dual protocol. […] IC50 values are calculated using an Activity Base (IDBS) software program.

[2] = target: T2, protein kinase D3 (PKD3) (Homo sapiens, UniProt O94806); assay: PKD3 TR-FRET (LANCE) kinase assay; format: biochemical
T2 construct: This assay is performed with full length wild-type enzyme that is purchased from Invitrogen; purchased Invitrogen
T2 sequence (O94806 1-890): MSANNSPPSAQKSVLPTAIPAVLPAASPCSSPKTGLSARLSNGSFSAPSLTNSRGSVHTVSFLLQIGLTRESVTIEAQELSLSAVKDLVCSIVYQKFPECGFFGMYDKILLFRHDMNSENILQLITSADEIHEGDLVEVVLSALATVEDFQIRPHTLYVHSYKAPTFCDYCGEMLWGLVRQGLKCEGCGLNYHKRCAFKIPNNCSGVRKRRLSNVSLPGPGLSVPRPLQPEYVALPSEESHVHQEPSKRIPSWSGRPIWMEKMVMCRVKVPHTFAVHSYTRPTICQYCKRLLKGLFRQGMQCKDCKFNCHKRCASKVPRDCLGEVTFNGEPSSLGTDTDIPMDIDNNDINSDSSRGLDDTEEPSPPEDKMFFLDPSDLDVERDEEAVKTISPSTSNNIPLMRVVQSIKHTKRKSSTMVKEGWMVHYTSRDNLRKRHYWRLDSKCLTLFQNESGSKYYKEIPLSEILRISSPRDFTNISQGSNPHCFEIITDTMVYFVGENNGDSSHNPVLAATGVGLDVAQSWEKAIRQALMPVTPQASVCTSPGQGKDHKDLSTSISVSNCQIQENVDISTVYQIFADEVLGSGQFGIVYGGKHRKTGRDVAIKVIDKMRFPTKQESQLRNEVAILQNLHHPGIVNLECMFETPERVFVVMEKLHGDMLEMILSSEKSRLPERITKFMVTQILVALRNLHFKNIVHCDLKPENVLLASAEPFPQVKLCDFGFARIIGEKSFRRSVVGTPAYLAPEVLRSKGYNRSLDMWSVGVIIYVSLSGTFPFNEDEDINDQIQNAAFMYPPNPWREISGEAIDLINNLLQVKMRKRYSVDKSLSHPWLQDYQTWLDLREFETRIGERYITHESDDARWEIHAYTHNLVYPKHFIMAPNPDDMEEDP
Excerpt: as §1, with “D3 (PKD3)” for “D2 (PKD2)”
as §2, with “that is purchased” for “purchase”, “PKD3” for “PKD2”, “LANCET™” for “LANCE™”

[3] = full length wild-type enzyme, 20 μM ATP, read-out: Inhibitory Activity PKD2
[4] = full length wild-type enzyme, 20 μM ATP, read-out: Inhibitory Activity PKD3

| SMILES | IC50 [1, 3] | IC50 [2, 4] | IC50 [1] | IC50 [2] |
| --- | --- | --- | --- | --- |
| Cn1ccc(Nc2cc(-c3cc4cnccc4c(N4CCC(C(N)=O)CC4)n3)ccn2)n1 [Example 19, 1-{3-[2-(1-Methyl-1H-pyrazol-3-ylamino)pyridin-4-yl]-[2,6]naphthyridin-1-yl}piperidine-4-carboxylic acid amide] | 2 nM | 0.4 nM |  |  |
| c1cc2c(NC3CCNC3)nc(-c3ccnc(NC4CCCCC4)c3)cc2cn1 (stereo not drawn) [Example 14, [3-(2-Cyclohexylaminopyridin-4-yl)-[2,6]naphthyridin-1-yl]pyrrolidin-3-ylamine] | 6 nM | 1 nM |  |  |
| CNc1cc(-c2cc3cnccc3c(NC)n2)ccn1 [Example 2, 1-Methylamino-3-(2-methylaminopyridin-4-yl)-[2,6]-naphthyridine] |  |  | 753 nM | 450 nM |
| CN1CCN(c2nc(-c3ccnc(NC4CCCCC4)c3)cc3cnccc23)CC1 [Example 13, Cyclohexyl-{4-[1-(4-methylpiperazin-1-yl)-[2,6]naphthyridin-3-yl]pyridin-2-yl}amine] |  |  | 14 nM | 1 nM |
| CNc1cc(-c2cc3cnccc3c(NCCCO)n2)ccn1 [Example 1] | 903 nM | 227 nM |  |  |
| CN(C)CCNc1nc(-c2ccnc(NC3CCCCC3)c2)cc2cnccc12 [Example 8, N-[3-(2-Cyclohexylaminopyridin-4-yl)-[2,6]naphthyridin-1-yl]-N′,N′-dimethylethane-1,2-diamine] | 259 nM | 58 nM |  |  |
